# In patent US20050054629A1, “Compounds and methods of treating cell proliferative diseases” (priority 2002, published 2005):
# pIC50: −log10 of the molar value.
# Legend:
# NIH3T3 = assay: Cytoskeleton analysis, actin staining (FITC-phalloidin); format: cell-based, mouse
# Method: (§1) Since major rearrangements of cytoskeleton are observed in tumor cells and since the small GTPases are known to regulate these events, analysis of actin cytoskeleton was performed. Subconfluent cells seeded onto coverslips were treated with different concentration of compound (1, 10, 17.5, 25 and 50 μM) or vehicle for 24 h, before being fixed in 4% formaldehyde for 15 min., permeabilized in 0.2% Triton X100 for 5 minutes and incubated in PowerBlock (Biogenex) for 10 min. Actin filaments were stained with 0.5 μg/ml fluorescein isothiocyanate (FITC)-labelled phalloidin for 1 hour. Analysis was performed using an inverted fluorescent microscope.
# MDA-MB-231 cells [1] = assay: Matrigel invasion assay (Boyden chamber); format: cell-based, human
# In short: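 MDA-MB-231 cells were pretreated overnight with compound (1, 10, 17.5, 25, 50 μM). 10^5 cells in serum-free 0.1% BSA medium with compound were placed on 8 μm membranes coated with Matrigel (125 μg/cm^2), with 10% FBS plus compound below. After 6 h at 37 °C, cells on the filter underside were Diff-Quick stained and counted.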
# NIH3T3 cells = assay: Colony formation assay with constitutively activated Ras (RasV12) and Rac (RacV12); format: cell-based, mouse; parameters: key to Colony formation: −: no effect of the compound was observed; +: an effect of the compound was observed
# Method: (§2) The impact of the compounds on Ras and Rac signaling pathways was analysed with two reporter systems described by Imler (Nature 1988) and Lin (Science, 1995) respectively on one hand, and by a colony formation assay in the presence of constitutively activated Ras (RasV12) and Rac (RacV12) on the other hand. For this latter experiment, fifty percent confluent NIH3T3 cells in a 10 cm diameter petri dish were transfected with 0.5 μg pSV2-RasV12 or 0.5 μg pEXV RacV12 plasmids plus 100 ng of pSV2-neomycin plasmid using Lipofectamine-Plus reagent (Invitrogen) according to the manufacturer's instructions. Forty-eight hours later, cells were trypsinised, splitted to ⅓, and incubated in the presence of complete medium supplemented with 400 μg/ml geneticin (Invitrogen) and different doses of compound (1, 10, 17.5, 25 and 50 μM) until emerging resistant clones appear (2-3 weeks). The medium was renewed every 3 days. Colonies with a minimum of 50 cells were counted after staining with Fuschin 2%.
# [2] = test system: HCT116 colon adenocarcinoma; assay: Cytotoxicity assay (MTT), 6 days; format: cell-based, human; settings: Homo sapiens, HCT-116, 144 h, 6 days of treatment, read-out: Toxicity 6d (IC 50, μM) HCT116
# In short: (§3)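 Six-day continuous treatment (0–50 μM; final DMSO 1%), then MTT (0.5 mg/ml, 3 h, 37° C) with DMSO-dissolved formazan read at 550 nm. Surviving fraction and IC50 determined.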
# MDA-MB-231 cells [3] = assay: Migration assay (Boyden chamber, non-coated filters); format: cell-based, human; settings: MDA-MB-231, Boyden chamber
# Method: One day after seeding, 10^6 MDA-MB-231 cells were treated overnight with different concentrations of compounds (1, 10, 17.5, 25 and 50 μM). Cells were collected with Versene (Invitrogen), counted with trypan blue exclusion, rinsed twice in serum-free medium containing 0.1% BSA and resuspended in serum-free medium containing 0.1% BSA plus the appropriate concentration of compound. 10^5 treated cells were placed in the upper chamber. Medium containing 10% of FBS plus the appropriate concentration of compound was placed in the lower chamber as a chemoattractant. The Boyden chamber was incubated 6 hours at 37° C. before the cells were fixed and stained with Diff-Quick (Dade-Berhing). Cells on the upper part of the filters were removed using a cotton swab. Cells on the underside of the filters were visualised and counted under light microscope.
# The migration assay was performed the same way, using non-coated filters.
# cell architecture = assay: Cell architecture modification, phase contrast; format: cell-based; parameters: key: −: no effect of the compound was observed; +: an effect of the compound was observed
# Ras = assay: Ras-dependant signaling pathway analysis (reporter system); format: cell-based; parameters: key: −: no effect of the compound was observed; +: an effect of the compound was observed
# Method: as §2
# [4] = test system: MDA-MB-231 breast carcinoma; assay: Cytotoxicity assay (MTT), 6 days; format: cell-based; settings: Homo sapiens, MDA-MB-231, 144 h, 6 days of treatment, read-out: Toxicity 6d (IC 50, μM) MDA231
# In short: as §3
# MRC-5 = assay: Cytotoxicity assay (MTT), 6 days; format: cell-based; settings: Homo sapiens, MRC5, 144 h, 6 days of treatment, read-out: Toxicity 6d (IC 50, μM) MRC-5
# In short: as §3
# H460 lung carcinoma = assay: Cytotoxicity assay (MTT), 6 days; format: cell-based; settings: Homo sapiens, NCI-H460, 144 h, 6 days of treatment, read-out: Toxicity 6d (IC 50, μM) H460
# In short: as §3
# MCF10-A = assay: Cytotoxicity assay (MTT), 6 days; format: cell-based; settings: Homo sapiens, MCF-10A, 144 h, 6 days of treatment, read-out: Toxicity 6d (IC 50, μM) MCF10-A
# In short: as §3
# NIH3T3 mouse fibroblasts = assay: Cytotoxicity assay (MTT), 6 days; format: cell-based; settings: NIH3T3, 144 h, 6 days of treatment, read-out: Toxicity 6d (IC 50, μM) NIH3T3
# In short: as §3
# MCF-7 breast carcinoma = assay: Cytotoxicity assay (MTT), 6 days; format: cell-based; settings: Homo sapiens, MCF7, 144 h, 6 days of treatment, read-out: Toxicity 6d (IC 50, μM) MCF7
# In short: as §3
# H460 = assay: Cytoskeleton analysis, actin staining (FITC-phalloidin); format: cell-based, human; settings: 24 h treatment
# Method: as §1
# HCT116 = assay: as above; format: cell-based, human; settings: 24 h treatment
# Method: as §1
# HCT116 cells = assay: Anchorage-independent growth assay (soft agar / Matrigel); format: cell-based, human; settings: Homo sapiens, HCT-116, 168 h; HCT116, 3-dimensional growth, 1 week
# Method: In order to evaluate the effect of the compounds on the capacity of tumor cells to grow without anchorage, HCT116 cells were seeded either in agar or in Matrigel (BD, France). For 3D growth experiment in soft agar in 24-well plates, 5.10^3 HCT116 cells were resuspended in 250 μl of complete medium containing 0.3% soft-agar (Difco) and different concentrations of compound (0.1, 1, 10, 17.5, 25 and 50 μM). Cells were then poured on a solidified layer of medium containing 0.5% of soft-agar plus the compound at the same concentration than in the upper layer. Cells were incubated at 37° C. for 1 week before they were analysed using a phase contrast microscope (Nikon). For 3D growth experiment in Matrigel, 10^4 HCT116 cells were resuspended in 300 μl of complete medium containing 5 mg/ml Matrigel (BD, France) and different concentrations of compound (0.1, 1, 10, 17.5, 25 and 50 μM), and poured in 24-well plates. After solidification at 37° C. for 15 min., complete medium containing the compound was added to each well. Cells were incubated for 1 week before they were collected using Matrisperse (BD, France) according to the manufacturer's instructions. After recovery, alive cells were counted with trypan blue exclusion.
structure (smiles),measurement,setting,value
"CCCc1ccccc1OCCCCCOc1coc(CO)cc1=O [EH18900, 5-[5-(2-Propylphenyloxy)pentyloxy]-2-(hydroxymethyl)-4H-pyran-4-one]",Cell architecture modification actin staining (R: ruffles; FC: focal complexes) NIH3T3,NIH3T3; 24 h treatment,"R-, FC+"
same,concentration at which specific inhibition of membrane ruffles and increase in the number of stress fibers was observed,"NIH3T3; NIH3T3, actin staining",10 µM
same,concentration giving an increase in invasive properties of MDA-MB-231 cells,MDA-MB-231 cells [1],50 µM
same,Invasion,"MDA-MB-231 cells [1]; MDA-MB-231, Boyden chamber, matrigel",Increase
same,Colony formation,NIH3T3 cells,+
same,Ras-dependent neoR clones formation,NIH3T3 cells; NIH3T3 transfected with RasVal12,inhibited
same,IC50,[2],35 µM
same,Migration,MDA-MB-231 cells [3],no effect
same,Cell architecture modification phase contrast,cell architecture,+
same,Small GTPases activities Ras,Ras,−
same,IC50,[4],> 50 µM
same,IC50,MRC-5,17.5 µM
same,IC50,H460 lung carcinoma,40 µM
same,IC50,MCF10-A,50 µM
same,IC50,NIH3T3 mouse fibroblasts,0.5 µM
same,IC50,MCF-7 breast carcinoma,30 µM
same,Cell architecture modification actin staining H460,H460,cell spreading
same,Cell architecture modification actin staining HCT116,HCT116,cell spreading
same,pIC50,HCT116 cells,5.30 to 6.00
